Columns and labels:
[1] = tested on: β-amyloid production by 7W WT APP751 CHO cells; experiment: Screening of dihydropyridine compounds (Maybridge), Aβ1-40 and Aβ1-42 ELISA (Example 2); assay type: cell-based, Chinese hamster; details: 30 μM, 24 hours (FIGS. 5A-B)
Procedure: (§1) Dihydropyridine compounds were obtained from Maybridge (England). Each compound was dissolved in DMSO. 7W WT APP751 CHO cells overexpressing APP751 were plated into 96-well culture plates in 200 μL of culture medium. Each compound from the library was added to confluent cells to a final concentration of 30 μM. After 24 hours of treatment, culture medium was collected and dissolved 10-fold and 2-fold for measuring the level of Aβ1-40 and Aβ1-42, respectively. Aβ1-40 and Aβ1-42 were determined using commercially available ELISAs (Biosource, CA), following the recommendations of the manufacturer.

[2] = tested on: β-amyloid production by 7W WT APP751 CHO cells; experiment: Screening of NF-kB activation inhibitors, Aβ1-40 and Aβ1-42 ELISA (Example 3); assay type: cell-based, Chinese hamster; details: 24 hours (FIG. 6)
Procedure: Most of the compounds screened can be obtained as Calbiochem products from EMD Biosciences, Inc., La Jolla, Calif. R—and S-Niguldipine are available e.g., from Tocris Cookson Inc., Ellisville, Mo. CAPE and Artemisinin are available, e.g., as a Sigma product from Sigma-Aldrich Corp., St. Louis, Mo.
as §1, with “Each compound” for “Dihydropyridine compounds were obtained from Maybridge (England). Each compound”, “concentration of 500 nM, 1 μM, 5 μM, 10 μM and/or 30 μM.” for “concentration of 30 μM.”

CCOC(=O)C1=C(C)NC(C)=C(C(=O)OCC)C1c1ccc(C)cc1 [JFD 03282, diethyl 2,6-dimethyl-4-(4-methylphenyl)-1,4-dihydropyridine-3,5-dicarboxylate]
concentration of Aβ1-40 compared to controls [1]: significantly decreased
concentration of Aβ1-42 compared to controls [1]: significantly decreased
concentration of total β-amyloid (Aβ1-40+Aβ1-42) compared to controls [1]: significantly decreased

CCOC(=O)C1=C(C)NC(C)=C(C(=O)OCC)C1c1ccc(Cl)c(Cl)c1 [JFD 03294, diethyl 4-(3,4-dichlorophenyl)-2,6-dimethyl-1,4-dihydropyridine-3,5-dicarboxylate]
concentration of Aβ1-40 compared to controls [1]: significantly decreased
concentration of Aβ1-42 compared to controls [1]: significantly decreased
concentration of total β-amyloid (Aβ1-40+Aβ1-42) compared to controls [1]: significantly decreased

CC1=C(C#N)C(c2ccc(Cl)c(Cl)c2)C(C#N)=C(C)N1 [JFD 03292, 4-(3,4-dichlorophenyl)-2,6-dimethyl-1,4-dihydropyridine-3,5-dicarbonitrile]
concentration of Aβ1-40 compared to controls [1]: significantly decreased
concentration of total β-amyloid (Aβ1-40+Aβ1-42) compared to controls [1]: significantly decreased

C=C1C(=O)[C@@]23[C@H](O)C[C@@H]4C(C)(C)CC[C@H](O)[C@@]4(CO)[C@@H]2CC[C@@H]1[C@H]3O [kamebakaurin]
concentration of Aβ1-40 compared to controls ([2]; 10 μM): significantly decreased
concentration of Aβ1-42 compared to controls ([2]; 10 μM): significantly decreased
concentration of total β-amyloid compared to controls ([2]; 10 μM): significantly decreased
concentration of Aβ1-40 compared to controls ([2]; 30 μM): significantly decreased
concentration of Aβ1-42 compared to controls ([2]; 30 μM): significantly decreased
concentration of total β-amyloid compared to controls ([2]; 30 μM): significantly decreased

CCOC(=O)C1=C(C)NC(C)=C(C(=O)OCC)C1c1ccc(-c2ccccc2C(F)(F)F)o1 [RJC 03405, diethyl 2,6-dimethyl-4-{5-[2-(trifluoromethyl)phenyl]-2-furyl}-1,4-dihydro-3,5-pyridinedicarboxylate]
concentration of Aβ1-40 compared to controls [1]: significantly decreased
concentration of total β-amyloid (Aβ1-40+Aβ1-42) compared to controls [1]: significantly decreased

O=C1C=C(c2ccccc2)CN(C2CCCCC2)C1=O [HTS 01512, 1-cyclohexyl-5-phenyl-1,6-dihydro-2,3-pyridinedione]
concentration of Aβ1-40 compared to controls [1]: significantly decreased
concentration of Aβ1-42 compared to controls [1]: significantly decreased
concentration of total β-amyloid (Aβ1-40+Aβ1-42) compared to controls [1]: significantly decreased

COC(=O)C1=C(C)NC(C)=C(C(=O)OC)C1c1ccc(-c2ccsc2C(=O)OC)o1 [SEW 02070, dimethyl 4-{5-[2-(methoxycarbonyl)-3-thienyl]-2-furyl}-2,6-dimethyl-1,4-dihydropyridine-3,5-dicarboxylate]
concentration of Aβ1-40 compared to controls [1]: significantly decreased
concentration of total β-amyloid (Aβ1-40+Aβ1-42) compared to controls [1]: significantly decreased

N#Cc1c(-c2cn(-c3ccccc3)nc2-c2ccccc2)cc(-c2ccccc2)[nH]c1=O [HTS 07578, 4-(1,3-diphenyl-1H-pyrazol-4-yl)-2-oxo-6-phenyl-1,2-dihydro-3-pyridinecarbonitrile]
concentration of Aβ1-40 compared to controls [1]: significantly decreased
concentration of Aβ1-42 compared to controls [1]: significantly decreased
concentration of total β-amyloid (Aβ1-40+Aβ1-42) compared to controls [1]: significantly decreased

CCOC(=O)C1=C(C)NC(C)=C(C(=O)OCC)C1c1ccccc1[N+](=O)[O-] [JFD 03311, diethyl 2,6-dimethyl-4-(2-nitrophenyl)-1,4-dihydropyridine-3,5-dicarboxylate]
concentration of Aβ1-40 compared to controls [1]: significantly decreased
concentration of total β-amyloid (Aβ1-40+Aβ1-42) compared to controls [1]: significantly decreased

CCOC(=O)C1=C(C)NC(C)=C(C(=O)OCC)C1c1ccc([N+](=O)[O-])cc1 [JFD 03266, diethyl 2,6-dimethyl-4-(4-nitrophenyl)-1,4-dihydropyridine-3,5-dicarboxylate]
concentration of Aβ1-40 compared to controls [1]: significantly decreased
concentration of total β-amyloid (Aβ1-40+Aβ1-42) compared to controls [1]: significantly decreased

N#Cc1c(-c2cccs2)cc(-c2ccccc2)[nH]c1=O [HTS 10306, 2-oxo-6-phenyl-4-(2-thienyl)-1,2-dihydro-3-pyridinecarbonitrile]
concentration of Aβ1-40 compared to controls [1]: significantly decreased
concentration of Aβ1-42 compared to controls [1]: significantly decreased
concentration of total β-amyloid (Aβ1-40+Aβ1-42) compared to controls [1]: significantly decreased

CCOC(=O)C1=C(C)NC(C)=C(C(=O)OCC)C1c1ccccc1Cl [JFD 03305, diethyl 4-(2-chlorophenyl)-2,6-dimethyl-1,4-dihydropyridine-3,5-dicarboxylate]
concentration of Aβ1-40 compared to controls [1]: significantly decreased
concentration of Aβ1-42 compared to controls [1]: significantly decreased
concentration of total β-amyloid (Aβ1-40+Aβ1-42) compared to controls [1]: significantly decreased

CCOC(=O)C1=C(C)NC(C)=C(C(=O)OCC)C1c1cccc([N+](=O)[O-])c1 [XBX 00343, diethyl 2,6-dimethyl-4-(3-nitrophenyl)-1,4-dihydropyridine-3,5-dicarboxylate]
concentration of Aβ1-40 compared to controls [1]: significantly decreased
concentration of total β-amyloid (Aβ1-40+Aβ1-42) compared to controls [1]: significantly decreased

CCOC(=O)C1=C(C)NC(C)=C(C(=O)OCC)C1c1ccc(OC)cc1Cl [RJC 03413, diethyl 4-(2-chloro-4-methoxyphenyl)-2,6-dimethyl-1,4-dihydro-3,5-pyridinedicarboxylate]
concentration of Aβ1-40 compared to controls [1]: significantly decreased
concentration of total β-amyloid (Aβ1-40+Aβ1-42) compared to controls [1]: significantly decreased

O=C1CC(c2ccccc2)CC(=O)N1c1ccc(Oc2ccc(Cl)cc2)cc1 [PD 00463, 1-[4-(4-chlorophenoxy)phenyl]-4-phenyldihydropyridine-2,6(1H,3H)-dione]
concentration of Aβ1-40 compared to controls [1]: significantly decreased
concentration of Aβ1-42 compared to controls [1]: significantly decreased
concentration of total β-amyloid (Aβ1-40+Aβ1-42) compared to controls [1]: significantly decreased

CCOC(=O)C1=C(C)NC(C)=C(C(=O)OCC)C1c1ccc(Cl)cc1 [BTB 14328, diethyl 4-(4-chlorophenyl)-2,6-dimethyl-1,4-dihydropyridine-3,5-dicarboxylate]
concentration of Aβ1-40 compared to controls [1]: significantly decreased
concentration of Aβ1-42 compared to controls [1]: significantly decreased
concentration of total β-amyloid (Aβ1-40+Aβ1-42) compared to controls [1]: significantly decreased

COC(=O)C1=C(C)NC(C)=C(C(=O)OC)C1c1ccc(Cl)cc1Cl [RJC 03423, dimethyl 4-(2,4-dichlorophenyl)-2,6-dimethyl-1,4-dihydro-3,5-pyridinedicarboxylate]
concentration of Aβ1-40 compared to controls [1]: significantly decreased
concentration of Aβ1-42 compared to controls [1]: significantly decreased
concentration of total β-amyloid (Aβ1-40+Aβ1-42) compared to controls [1]: significantly decreased

COC(=O)C1=C(C)NC(C)=C(C(=O)OC)C1c1ccc(Cl)c(Cl)c1 [JFD 03293, dimethyl 4-(3,4-dichlorophenyl)-2,6-dimethyl-1,4-dihydropyridine-3,5-dicarboxylate]
concentration of Aβ1-40 compared to controls [1]: significantly decreased
concentration of Aβ1-42 compared to controls [1]: significantly decreased
concentration of total β-amyloid (Aβ1-40+Aβ1-42) compared to controls [1]: significantly decreased

CCOC(=O)C1=C(C)NC(C)=C(C(=O)OCC)C1c1cccc(Cl)c1 [JFD 03274, diethyl 4-(3-chlorophenyl)-2,6-dimethyl-1,4-dihydropyridine-3,5-dicarboxylate]
concentration of Aβ1-40 compared to controls [1]: significantly decreased
concentration of total β-amyloid (Aβ1-40+Aβ1-42) compared to controls [1]: significantly decreased

CCOC(=O)C1=C(C)NC(C)=C(C(=O)OCC)C1c1ccc(F)cc1 [JFD 03318, diethyl 4-(4-fluorophenyl)-2,6-dimethyl-1,4-dihydropyridine-3,5-dicarboxylate]
concentration of Aβ1-40 compared to controls [1]: significantly decreased
concentration of Aβ1-42 compared to controls [1]: significantly decreased
concentration of total β-amyloid (Aβ1-40+Aβ1-42) compared to controls [1]: significantly decreased

CCOC(=O)C1=C(C)NC(C)=C(C(=O)OCC)C1c1ccc(Cl)cc1Cl [RJC 03403, diethyl 4-(2,4-dichlorophenyl)-2,6-dimethyl-1,4-dihydro-3,5-pyridinedicarboxylate]
concentration of Aβ1-40 compared to controls [1]: significantly decreased
concentration of Aβ1-42 compared to controls [1]: significantly decreased
concentration of total β-amyloid (Aβ1-40+Aβ1-42) compared to controls [1]: significantly decreased

CCOC(=O)C1=C(C)NC(C)=C(C(=O)OCC)C1c1ccc(-c2cc(C(F)(F)F)cc(C(F)(F)F)c2)o1 [CD 04170, diethyl 4-{5-[3,5-di(trifluoromethyl)phenyl]-2-furyl}-2,6-dimethyl-1,4-dihydro-pyridine-3,5-dicarboxylate]
concentration of Aβ1-40 compared to controls [1]: significantly decreased
concentration of Aβ1-42 compared to controls [1]: significantly decreased
concentration of total β-amyloid (Aβ1-40+Aβ1-42) compared to controls [1]: significantly decreased

CCOC(=O)C1=C(C)NC(C)=C(C(=O)OCC)C1c1ccc(Br)cc1 [JFD 01209, diethyl 4-(4-bromophenyl)-2,6-dimethyl-1,4-dihydropyridine-3,5-dicarboxylate]
concentration of Aβ1-40 compared to controls [1]: significantly decreased
concentration of Aβ1-42 compared to controls [1]: significantly decreased
concentration of total β-amyloid (Aβ1-40+Aβ1-42) compared to controls [1]: significantly decreased

Reference: patent publication US20060188938A1, “Compounds for inhibiting beta-amyloid production and methods of identifying the compounds” (priority 2005, published 2006)
